Measurements as given in patent US20050265999A1, “Modulation of 5-HT2 receptors as a treatment for cardiovascular diseases” (Myogen, Inc., priority 2003, published 2005).

Tests used:
[1] = system: primary rat neonatal cardiomyocytes; test: Immunofluorescence / morphology of cardiomyocyte hypertrophy in NRVM; type: cell-based; settings: 1 μM, 48 h
Procedure: (§1) NRVM culture. For preparations of neonatal rat ventricular myocytes (NRVMs), hearts were removed from 10-20 newborn (1-2 days old) Sprague-Dawley rats. Isolated ventricles were pooled, minced and dispersed by three 20-min incubations at 37° C. in Ads buffer (116 mM NaCl, 20 mM HEPES, 10 mM NaH2PO4, 5.5 mM glucose, 5 mM KCl, 0.8 mM MgSO4, pH 7.4) containing collagenase Type II (65 units/ml, Worthington) and pancreatin (0.6 mg/ml, GibcoBRL). Dispersed cells were applied to a discontinuous gradient of 40.5% and 58.5% (v/v) Percoll (Amersham Biosciences), centrifuged, and myocytes collected from the interface layer. Myocyte preparations were pre-plated in Dulbecco's modified Eagle's medium (DMEM, Cellgro), supplemented with 10% (v/v) fetal bovine serum (FBS, HyClone), 4 mM L-glutamine and 1% penicillin/streptomycin for 1 hour at 37° C. to reduce fibroblast contamination, then plated at a density of 2.5×10^5 cells per well on 6-well tissue culture plates (or 10,000 cells/well on 96-well tissue culture plates) coated with a 0.2% (w/v) gelatin solution. After 24 hours in culture, myocyte preparations were transferred to serum-free maintenance medium (DMEM supplemented with 0.1% (v/v) Nutridoma (Roche), L-glutamine and penicillin/streptomycin). Where indicated, NRVM were treated with test compounds for a period of 48 h. […]

beta myosin heavy chain = test: Beta myosin heavy chain protein quantitation by cytoblot in NRVM; type: cell-based, rat; settings: 1 μM, 48 h
Procedure: Beta myosin heavy chain protein quantitation by cytoblot. NRVM were plated overnight in 96-well plates. The next day, medium was replaced with serum-free maintenance medium for 4 hours, and test compounds added. Forty-eight hours later, wells were washed twice with […] PBS, aspirating between washes. Cells were fixed by adding […] methanol for 30 min. Methanol was aspirated and wells washed twice with […] PBS. Next, […] blocking solution (PBS+1% BSA) was added for 1 hr at room temperature. Blocking solution was aspirated and […] primary antibody solution added (β-myosin heavy chain hybridoma supernatant+1% BSA) for 1 hr at room temperature. Primary antibody solution was removed and wells washed three times with […] PBS+1% BSA. Wash was aspirated and […] secondary antibody solution added (1:500 dilution of goat […] HRP conjugate in PBS+1% BSA; Southern Biotech #4050-05) for 1 hr at room temperature. Secondary antibody solution was removed and wells washed three times with […] PBS. Wash was aspirated and […] luminol solution added (Pierce #34080). Plates were read in a 96-well luminometer (Packard Fusion).

5-HT2B = molecular target: T1, 5-HT2B (Homo sapiens, UniProt P41595); test: Radioligand receptor binding assay (MDS Pharma); settings: 10 μM compound, n=2
T1 construct: purchased MDS Pharma services 271700
Procedure: Receptor binding assays. Receptor binding assays were performed by MDS Pharma services. Assays included: Adenosine A1 (cat# 200510), Adenosine A2A (cat# 200610), Adenosine A3 (cat# 200720), Adrenergic alpha 1 (cat# 203500), Imidazoline 12 central (cat# 241000), Imidazoline I2 peripheral (cat# 241100), Inositol triphosphate (cat# 242500), Phorbol Ester (cat# 264500), 5-HT 2B (cat# 271700), and 5-HT 4 (cat# 272000).
• Summary of radioligand binding assays for 11 receptors. Data represent % inhibition of ligand binding in the presence of 10 μM 18264 (n=2).
• Summary of radioligand binding assays for three receptors. Data represent % inhibition of ligand binding in the presence of 10 μM 20068 (n=2).

5-HT2C = molecular target: T2, 5-HT2C (Homo sapiens, UniProt P28335); test: Radioligand receptor binding assay; settings: 10 μM compound, n=2
T2 sequence (P28335 33-458): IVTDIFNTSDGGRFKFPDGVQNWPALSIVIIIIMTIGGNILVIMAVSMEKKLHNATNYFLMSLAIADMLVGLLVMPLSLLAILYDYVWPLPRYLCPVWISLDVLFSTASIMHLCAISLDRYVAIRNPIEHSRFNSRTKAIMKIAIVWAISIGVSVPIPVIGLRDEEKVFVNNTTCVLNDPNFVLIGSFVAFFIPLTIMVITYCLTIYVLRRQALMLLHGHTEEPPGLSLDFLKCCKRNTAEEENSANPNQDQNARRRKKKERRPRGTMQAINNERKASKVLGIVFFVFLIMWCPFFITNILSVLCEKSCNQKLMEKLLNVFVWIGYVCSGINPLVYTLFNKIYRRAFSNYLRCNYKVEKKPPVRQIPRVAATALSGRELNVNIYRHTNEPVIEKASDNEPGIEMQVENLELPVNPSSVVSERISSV

[2] = system: neonatal rat ventricular myocytes (NRVM); test: Cell volume measurement (Coulter counter) of NRVM; type: cell-based; settings: NRVM stimulated with compound alone
Procedure: as §1, with “solution.” for “solution. After 24 hours in culture, myocyte preparations were transferred to serum-free maintenance medium (DMEM supplemented with 0.1% (v/v) Nutridoma (Roche), L-glutamine and penicillin/streptomycin). Where indicated, NRVM were treated with test compounds for a period of 48 h.”
Hypertrophy and toxicity assays. Primary hypertrophy endpoints for NRVM included quantitation of: ANF secretion, total cellular protein and cell volume. ANF in media supernatants was quantitated by competitive ELISA using a monoclonal anti-ANF antibody (Biodesign) and a biotinylated ANF peptide (Phoenix Peptide). Total cellular protein was quantitated by standard Coomassie dye-binding assay; cells were lysed in protein assay reagent (BioRad) and absorbance at A595 was measured after 1 hour. […] After recovery by centrifugation, cell pellets were washed in PBS, resuspended in 10 ml IsoFlow electrolyte solution (Beckman-Coulter) and analyzed with a Z2 Coulter Particle Counter and Size Analyzer (Beckman-Coulter). Cytotoxicity was quantitated by measuring release of adenylate kinase (AK) from cultured NRVM into culture medium (ToxiLight kit, Cambrex).

[3] = system: neonatal rat ventricular myocytes (NRVM); test: Affymetrix gene expression screening of NRVM; type: cell-based; parameters: dose or concentration left out as unconfirmed
Text: Affymetrix screening. RNA was extracted from unstimulated NRVM and hypertrophic NRVM exposed to compound 18264 […] (Trizol Reagent, GibcoBRL). RNA samples were converted to biotin-labeled cRNA and hybridized to Rat expression arrays (Affymetrix GeneChip). Arrays were then washed, scanned and quantitated as per manufacturer's instructions.

HDAC5 = test: HDAC localization assay, GFP-HDAC5 in NRVM; type: cell-based, rat; settings: NRVM, two hours; 18264 1 μM, PE 20 μM
Procedure: NRVM culture. For preparations of neonatal rat ventricular myocytes (NRVMs), hearts were removed from 10-20 newborn (1-2 days old) Sprague-Dawley rats. Isolated ventricles were pooled, minced and dispersed by three 20-min incubations at 37° C. in Ads buffer (116 mM NaCl, 20 mM HEPES, 10 mM NaH2PO4, 5.5 mM glucose, 5 mM KCl, 0.8 mM MgSO4, pH 7.4) containing collagenase Type II (65 units/ml, Worthington) and pancreatin (0.6 mg/ml, GibcoBRL). Dispersed cells were applied to a discontinuous gradient of 40.5% and 58.5% (v/v) Percoll (Amersham Biosciences), centrifuged, and myocytes collected from the interface layer. Myocyte preparations were pre-plated in Dulbecco's modified Eagle's medium (DMEM, Cellgro), supplemented with 10% (v/v) fetal bovine serum (FBS, HyClone), 4 mM L-glutamine and 1% penicillin/streptomycin for 1 hour at 37° C. to reduce fibroblast contamination, then plated at a density of 2.5×10^5 cells per well on 6-well tissue culture plates (or 10,000 cells/well on 96-well tissue culture plates) coated with a 0.2% (w/v) gelatin solution. After 24 hours in culture, myocyte preparations were transferred to serum-free maintenance medium (DMEM supplemented with 0.1% (v/v) Nutridoma (Roche), L-glutamine and penicillin/streptomycin). Where indicated, NRVM were treated with test compounds for a period of 48 h. For immunofluorescence applications, NRVM cultures were fixed, incubated with primary antibodies against alpha skeletal actin and atrial natriuretic factor, then incubated with rhodamine- or flurorescein-conjugated secondary antibodies. For HDAC localization assays, NRVM were plated to clear bottomed 96-well plates and infected overnight with recombinant adenovirus encoding HDAC5 fused to green fluorescent protein (multiplicity of infection=50). The next day, medium was replaced with serum-free maintenance medium for 4 hours, and test compounds added. After two hours, NRVM were fixed and imaged by fluorescent microscopy.

T1 sequence (P41595 whole entry): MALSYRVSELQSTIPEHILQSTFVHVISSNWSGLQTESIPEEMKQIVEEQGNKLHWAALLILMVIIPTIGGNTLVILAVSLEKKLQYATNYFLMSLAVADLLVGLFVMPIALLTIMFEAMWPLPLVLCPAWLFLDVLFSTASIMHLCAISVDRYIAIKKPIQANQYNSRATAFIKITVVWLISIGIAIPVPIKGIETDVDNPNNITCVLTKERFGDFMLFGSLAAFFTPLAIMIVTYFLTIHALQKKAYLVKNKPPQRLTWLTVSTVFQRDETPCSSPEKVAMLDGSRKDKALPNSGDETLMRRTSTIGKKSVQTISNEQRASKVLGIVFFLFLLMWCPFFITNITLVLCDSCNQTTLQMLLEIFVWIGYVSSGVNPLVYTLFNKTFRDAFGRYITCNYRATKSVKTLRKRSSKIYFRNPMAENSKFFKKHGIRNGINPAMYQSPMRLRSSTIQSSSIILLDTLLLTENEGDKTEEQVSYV

Cc1c(-c2ccccc2)nc2sc3c(c2c1N)CCCC3 [Compound 18264, 3-Methyl-2-phenyl-5,6,7,8-tetrahydro-benzo[4,5]thieno[2,3-b]pyridin-4-ylamine]
induction of myocyte hypertrophy (enlargement, sarcomere assembly) [1]: extraordinarily potent inducer of myocyte hypertrophy
expression of fetal beta isoform of myosin heavy chain (beta myosin heavy chain): significantly up-regulated
inhibition at 10 µM (5-HT2B): 97%
inhibition at 10 µM (5-HT2C): 42%
cell volume [2]: increased
-Fold upreg. of Alpha skeletal actin [3]: 2.1 fold
-Fold upreg. of Atrial natriuretic factor [3]: 2.3 fold
-Fold upreg. of Brain natriuretic factor [3]: 4.1 fold
-Fold upreg. of Myosin heavy chain, embryonic [3]: 29 fold
nuclear export of HDAC5-GFP (HDAC5): driven from the nucleus to the cytoplasm
